Experiments:
Type in all cases: in vivo, mouse
Conditions in all cases: 12 mg/kg ibudilast, compared with WT vehicle
[1] = test system: Fmr1 KO2 mice; assay: Three-chambered sociability task (social interaction)
Source text: (§1) Fmr1 knockout 2 (Fmr1 K02) mice were generated by deletion of the promoter and first exon of Fmr1. The Fmr1 KO2 it is both, protein and mRNA null. In this study we used Fmr1 KO2 and wild-type (WT) littermates generated on a C57BL/6J background and repeatedly backcrossed onto a C57BL/6J background for more than eight generations.
(§2) There were four treatment groups per compound in the study with 10 male mice used per treatment group (all at 8 weeks of age): Group 1: wild-type littermate mice treated with vehicle (WT-Veh), Group 2: Fmr1 KO2 mice treated with vehicle (KO-Veh), Group 3: Fmr1 KO2 mice treated with 12 mg/kg ibudilast (KO-ibudilast).
(§3) For experiments, all mice were tested once in the same apparatus. Prior to testing, mice were placed in the apparatus for some minutes before the experiment. The apparatus was cleaned with moist and dry tissues before testing each mouse. […] We assessed weight loss, fur loss, walking, eyes open, eye discharges and general behavior.
In the three-chambered sociability task, a subject mouse was evaluated for its exploration of a novel social stimulus (novel mouse). […] The time spent exploring the novel mice was scored as exploration ratio.
(§4) Data were analyzed by one-way ANOVA with a Dunnett's multiple comparison post hoc test in which WT Vehicle group was used as reference and compared with all the other groups

[2] = test system: Fmr1 KO2 mice; assay: Nesting
Source text: as §1, §2, §3
The test was performed in individual cages. […] Mice were placed individually into the nesting cages 1 hr. before the dark phase, and the results were assessed the next morning. Nest building was scored on a 5 point scale. […]
as §4

[3] = test system: Fmr1 KO2 mice; assay: Open field (hyperactivity)
Source text: as §1, §2
For experiments, all mice were tested once in the same apparatus. Prior to testing, mice were placed in the apparatus for some minutes before the experiment. […] We assessed weight loss, fur loss, walking, eyes open, eye discharges and general behavior.
The open-field apparatus was used to test hyperactivity. […] The number of squares entered by the whole body (locomotor activity) was counted. The movement of the mouse around the field was recorded with a video tracking device for 3 min (version NT4.0, Viewpoint).
as §4

[4] = test system: Fmr1 KO2 mice; assay: Contextual fear conditioning
Source text: as §1, §2
For experiments, all mice were tested once in the same apparatus. Prior to testing, mice were placed in the apparatus for some minutes before the experiment. The apparatus was cleaned with moist and dry tissues before testing each mouse. The aim was to create a low but constant background mouse odor for all experimental subjects. Testers were blind to the genotype and treatment during all testing and data analysis. We assessed weight loss, fur loss, walking, eyes open, eye discharges and general behavior. […]
as §4

CC(C)C(=O)c1c(C(C)C)nn2ccccc12 [ibudilast, 2-methyl-1-(2-propan-2-ylpyrazolo[1,5-a]pyridin-3-yl)propan-1-one]
fully rescued: sociability (exploration ratio) [1] | nesting (nest building score) [2] | open field (hyperactivity, locomotor activity) [3] | fear conditioning (freezing response) [4]

From patent publication US20220280490A1, “TREATMENT OF FRAGILE X SYNDROME” (HEALX LTD, priority 2019, published 2022)
